pIC50: −log10 of the molar value.
Molecular target: T1, Endothelial lipase (Homo sapiens, UniProt Q9Y5X9)
T1 sequence (Q9Y5X9 whole entry): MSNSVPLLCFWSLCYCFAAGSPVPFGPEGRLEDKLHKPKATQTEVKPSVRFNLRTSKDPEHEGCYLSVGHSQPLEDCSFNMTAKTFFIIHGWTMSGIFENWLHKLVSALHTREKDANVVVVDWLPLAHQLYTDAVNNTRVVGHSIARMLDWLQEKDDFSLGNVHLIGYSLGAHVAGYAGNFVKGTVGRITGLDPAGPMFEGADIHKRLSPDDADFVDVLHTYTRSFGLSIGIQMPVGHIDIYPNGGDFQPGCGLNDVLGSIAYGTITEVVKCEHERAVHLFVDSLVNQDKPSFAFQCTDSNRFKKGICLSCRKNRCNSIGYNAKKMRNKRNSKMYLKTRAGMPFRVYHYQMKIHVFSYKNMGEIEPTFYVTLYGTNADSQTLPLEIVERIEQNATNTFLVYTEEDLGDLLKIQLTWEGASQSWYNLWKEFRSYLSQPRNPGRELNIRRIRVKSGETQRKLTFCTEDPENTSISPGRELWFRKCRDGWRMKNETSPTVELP
Test: Biological Assay: Endothelial lipase activity was measured using a fluorescent substrate, A10070, (Invitrogen, CA) doped into an artificial vesicle containing DMPG (Avanti Polar Lipids) as the excipient. Vesicles were prepared by combining 285 uL, of 1 mM DMPG in a 1:1 mixture of MeOH and CHCl3 with 15 uL, of 1 mM A10070 in a 1:1 mixture of MeOH and CHCl3. The mixture was dried under nitrogen and resuspended in 150 uL, of 50 mM HEPES pH 8.0 buffer containing 100 mM NaCl and 0.2 mM EDTA. The sample was allowed to sit at rt for 15 min and then was sonicated 3x4 mins on ice with a Branson Sonicator using duty cycle 1. This preparation provides vesicles with a mole fraction of 0.05 for the FRET substrate.The enzymatic assay was measured using white, opaque 96-well half area plates. Each well contained 60 uL, of assay buffer (50 mM HEPES pH 8.0, 50 mM NaCl and 1 mM CaCl2) and 2 ul of a DMSO solution containing compound of interest. Conditioned media obtained from HT-1080 cells.
Format: cell-based

SMILES | pIC50
CC(C)(C)OC(=O)NC(c1nnc(CNS(N)(=O)=O)o1)c1nc2ccc(-c3ccccc3)cc2s1 (stereo not drawn) | > 8.00
CC(=O)NC(c1nnc(C2CN(C(=O)OC(C)(C)C)C2)o1)c1nc2ccc(-c3ccccc3)cc2s1 (stereo not drawn) | > 8.00
O=C(NC(c1nnc(CS(=O)(=O)O)o1)c1nc2ccc(-c3ccccc3)cc2s1)c1ccc(C(F)(F)F)cc1 (stereo not drawn) | > 8.00

From ChEMBL document CHEMBL3886260, “Amide or urea containing benzothiazole inhibitors of endothelial lipase” (2015)
